The text below walks through data of patent US20070015733A1, “Aryl Phosphate Derivatives of d4T having Activity Against Resistant HIV Strains” (Parker Hughes Institute, priority 1998, published 2007).

Data set [1] in a line: Octanol/water partition coefficient, shake flask method. In kind it is physicochemical. As for the experimental part:
Partition Coefficients. The octanol/water partition coefficient was determined by the shake flask method. The phosphoramidate analogs were added to 2 ml of water and 2 ml of octanol in a glass vial. The mixture was shaken for 4 hours at room temperature. The two phases were carefully separated and filtered through a Millipore filter and analyzed by HPLC. The partition coefficient was calculated using the ratio of the area under the curve for octanol and water respectively.

Data set [2] in a line: Alkaline chemical hydrolysis rate (NaOH/methanol, HPLC). In kind it is physicochemical. Conditions: alkali hydrolysis. As for the experimental part: All chemicals were purchased from Aldrich (Milwaukee, Wis.), with the exception of d4T which was synthesized in-house. All syntheses were performed under a nitrogen atmosphere. ^1H, ^13C, and ^31P NMR were obtained on a Varian Mercury 300 instrument at ambient temperature in CDCl3. FT-IR spectra were recorded on a Nicolet Protege 460 spectrometer. MALDI-TOF mass spectra were obtained by using a Finnigan MAT 95 system. UV spectra were recorded by using a Beckmann UV-VIS spectrophotometer (Model 3DU 74000) with a cell path length of 1 cm. HPLC purification was achieved by using a reverse-phase Lichrospher column (250×4 mm, Hewlett-Packard, RP-18, Cat # 79925) and an isocratic flow (1 ml/minute) consisting of water (70%) and acetonitrile (30%). The alkaline chemical hydrolysis was conducted at room temperature with sodium hydroxide (1 ml of 0.05N) and 3 ml of methanol solution containing 10 mg of the substrates in a Teflon lined reaction vial. […] The disappearance of the starting material was monitored as a function of time. […]
Statistical Analysis. The IC50 values were calculated from each set of triplicate wells using nonlinear regression modeling of the exponential form of the linearized equation. […] Hydrolysis rates were determined by fitting single exponential decay equations to the disappearance of the compound in alkali conditions. […]

A further data set relates to HIV-1 HTLVIIIB
Description: microbe, parasite or virus in culture. Conditions: read-out: IC50 HTLVIIIB; PBMNC, p24. The protocol:
In vitro assays of anti-HIV-1 activity. Normal human peripheral blood mononuclear cells (PBMNC) from HIV-negative donors were cultured 72 hours in RPMI 1640 supplemented with 20% (v/v) heat-inactivated fetal bovine serum (FBS), 3% interleukin-2, 2 mM L-glutamine, 25 mM HEPES, 2 g/L NaHCO3, […], and […] prior to exposure to HIV-1 at a multiplicity of infection (MOI) of 0.1 during a 1 hour adsorption period at 37° C. in a humidified 5% CO2 atmosphere. Subsequently, cells were cultured in 96-well microtiter plates ([…]; 2×10^6 cells/mL) in the presence of various concentrations of d4T phosphoramidates and aliquots of culture supernatants were removed from the wells on the 7th day after infection for p24 antigen assays, as previously described (Uckun et al., 1998, Antimicrobial Agents and Chem., 42(2):383-388). The applied p24 enzyme immunoassay (EIA) was the unmodified kinetic assay commercially available from Coulter Corporation/Immunotech, Inc. (Westbrooke, Me.), which utilizes a murine mAb to HIV core protein coated onto microwell strips to which the antigen present in the test culture supernatant samples binds. Percent viral inhibition was calculated by comparing the p24 values from untreated infected cells (i.e., virus controls).
The anti-HIV activity of the compounds was examined by evaluating their ability to inhibit HIV replication in peripheral blood mononuclear cells using previously described procedures (Uckun et al., 1998, Antimicrobial Agents and Chem., 42(2):383-388). Percent inhibition of viral replication was calculated by comparing the p24 antigen levels from the test substance-treated infected cells with those from vehicle-treated infected cells.
Antiviral susceptibility assays. Phenotypic drug susceptibility studies of HIV-1 isolates and strains were performed by measuring the production of the p24 gag protein in peripheral blood mononuclear cells (PBMC) from seronegative healthy volunteers in the presence of increasing concentrations of the anti-HIV agent using the quantitative Coulter HIV-1 p24 antigen ezyme immunoassay (EIA) and HIV-1 p24 Antigen Kinetic Standard (Beckman Coulter), as previously described (Uckun, 1998, Antimicrobial Agents and Chemotherapy 37(4): 835-38). Informed consent was obtained from the blood donors according to DHHS guidelines using consent forms approved by the Institutional Review Board. In brief, PBMC were cultured for 72 h in RPMI 1640 medium (Gibco) supplemented with 20% (vol/vol) heat-inactivated fetal bovine serum, 5% human interleukin-2 (Zeptometrix), 2 mM L-glutamine, 25 mM HEPES, 2 g/L NaHCO3, 100 U/ml penicillin/streptomycin (Gibco), 50 μg/ml gentamicin (Gibco), and 5 μg/ml phytohemagglutinin-P (PHA-P) (Sigma) for 24-72 hours prior to exposure to HIV at a multiplicity of infection of 0.001-0.1 during a 1-h adsorbtion period at 37±1° C. in a humidified 5-7% CO2 atmosphere. Subsequently, cells were cultured in 96-well microtiter plates (100 μl/well; 2×10^6 cells/ml, triplicate wells) in the presence of the anti-HIV agents at 6-7 different concentrations ranging from 0.0001 μM to 100 μM, and 25 μL aliquots of culture supernatants were removed from the wells on day 6 after infection for p24 EIA, as previously described (Uckun, 1998, Antimicrobial Agents and Chemotherapy, 37(4):835-38). Controls included uninfected and untreated cells (background control) and infected but untreated (virus control) cells. The p24 EIA utilizes a murine monoclonal antibody to HIV core protein used to coat microwell strips to which the antigen present in the test culture supernatant samples binds. Percent inhibition of viral replication was calculated by comparing the p24 values from the test substance-treated infected cells with p24 values from untreated infected cells (i.e., virus controls). The IC50 values were determined using the Statview statistics program (SAS Institute, Inc.).

Data set [3] has as its system HIV-1 A17 (Y181C mutant, NNRTI-resistant). Description: p24 antigen assay, A17 strain in PBMC. The conditions noted are these: PBMNC, p24; read-out: IC50 A17. The class given is cell-based. An excerpt:
(§1) In vitro assays of anti-HIV-1 activity.
(§2) Viruses. 20 primary clinical isolates with genotypic and/or phenotypic NRTI-resistance (isolated in the laboratory of D. Richman) and 10 clinical isolates with phenotypic stavudine (d4T) resistance (obtained through the AIDS Research and Reference Reagent Program, NIAID) were used in the current study. The HIV-1 strains HTLVIIIB (wildtype RT, NRTI-sensitive, NNRTI-sensitive), A17 (Y181 C mutant, NNRTI-resistant), A17-variant (Y181C+K103N mutant, NNRTI-resistant), and RT-MDR (M41 L, V106N, T215Y; NRTI-resistant, NNRTI-resistant) were also obtained from the AIDS Research and Reference Reagent Program, NIAID.
(§3) Antiviral susceptibility assays.

The test system of data set [4] is HIV-1 A17-variant (Y181C+K103N mutant, NNRTI-resistant). Description: p24 antigen assay, A17-variant strain in PBMC. In kind it is cell-based. The conditions noted are these: PBMNC, p24; read-out: IC50 A17V.
Description: as §1, §2, §3

The test system of data set [5] is HIV-1 RT-MDR (NRTI-resistant, NNRTI-resistant). Kind of data set: p24 antigen assay, RT-MDR strain. Conditions: p24; read-out: IC50 RTMDR. The class given is cell-based.

Broadly, the IC50 is the midpoint of a concentration-inhibition curve.

With `COC(=O)C(C)NP(=O)(OCC1C=CC(n2cc(C)c(=O)[nH]c2=O)O1)Oc1ccccc1Cl` (centres unmarked) [Compound 13, 5′-[2-Chlorophenylmethoxyalaninylphosphate]-2′,3′-didehydro-3′-deoxythymidine], in data set [1], the “Partition Coefficient (log P)” value came out at 0.84. For the same molecule, in data set [2], the “Hydrolysis Rate” value was 0.0370 min⁻¹. Moreover, the IC50 came out at 3 ± 1 nM in the data set on HIV-1 HTLVIIIB, 34 ± 20 nM in data set [3], 15 ± 8 nM in data set [4] and 187 ± 108 nM in data set [5].

With `COC(=O)C(C)NP(=O)(OCC1C=CC(n2cc(C)c(=O)[nH]c2=O)O1)Oc1cccc(Br)c1` (centres unmarked) [Compound 9, 5′-[3-Bromophenylmethoxyalaninylphosphate]-2′,3′-didehydro-3′-deoxythymidine], in data set [1], the “Partition Coefficient (log P)” value is listed as 1.12. For the same molecule, the “Hydrolysis Rate” value in data set [2] turned out to be 0.0338 min⁻¹. The IC50 with HIV-1 HTLVIIIB amounted to 2 ± 2 nM; in data set [3], 42 ± 24 nM; in data set [5], 493 ± 285 nM.
